Measured values: ChEMBL document CHEMBL1151138, “3'-prenyl-4'-methoxy-isoflavone-7-O-beta-D-(2''-O-p-coumaroyl) glucopyranoside, a novel phytoestrogen from Sopubia delphinifolia” (1990)
Calls of active or inactive are those of the source. The rule behind the calls is not given here.

Tests used:
[1] = tested on: Rattus norvegicus; assay: Estrogenic activity in albino rat assessed as vaginal openings at 10 ug, po administered twice daily measured after 4 days relative to control; format: functional, organism-based
[2] = tested on: Rattus norvegicus; assay: Estrogenic activity in albino rat assessed as vaginal openings at 50 ug, po administered twice daily measured after 4 days relative to control; format: functional
[3] = tested on: Rattus norvegicus; assay: Estrogenic activity in albino rat assessed as uterus weight at 10 ug, po administered twice daily measured after 4 days; format: functional
[4] = tested on: Rattus norvegicus; assay: Estrogenic activity in albino rat assessed as uterus weight at 50 ug, po administered twice daily measured after 4 days; format: functional
[5] = tested on: Rattus norvegicus; assay: Estrogenic activity in albino rat assessed as uterus weight at 20 ug, po administered twice daily measured after 4 days; format: functional

COc1ccc(-c2coc3cc(O[C@@H]4O[C@H](CO)[C@@H](O)[C@H](O)[C@H]4OC(=O)/C=C/c4ccc(O)cc4)ccc3c2=O)cc1CC=C(C)C
Activity [1]: inactive | Activity [2]: 100% | Activity [3]: 18% | Activity [4]: 33.21% | Activity [5]: 27.79%
